{"source": "patent US6750220B2", "about": "“Amine salt of an integrin receptor antagonist” (Merck & Co., Inc., priority 2001, dated 2004)", "assay": "solubility in water", "format": "physicochemical", "settings": "compared with the parent zwitterionic compound of structural formula IV", "note": "Counter-ions that a name gives are not always drawn."}
{"molecule": "O=C(O)CC(CCCCCCc1ccc2c(n1)NCCC2)c1cncnc1", "note": "(stereo not shown) [TRIS salt, tris(hydroxymethyl)aminomethyl (“TRIS”) salt of 3-(pyrimidin-5-yl)-9-(5,6,7,8-tetrahydro-[1,8]-naphthyridin-2-yl)-nonanoic acid]", "values": [{"measurement": "solubility in water", "value": "greater solubility in water than the parent zwitterionic compound"}]}
